Results published in patent publication US20260125382A1, “COMPOUNDS FOR INHIBITING OR DEGRADING CDK2 AND/OR CDK9 AND MEDICINAL USE THEREOF” (KOREA RESEARCH INSTITUTE OF CHEMICAL TECHNOLOGY, priority 2022, published 2026).

Experiments:
CDK2 = target: T1, CDK2 (Homo sapiens, UniProt P24941); test: CDK protein degradation activity (Western blotting), CDK2; type: cell-based; settings: MDA-MB-231 cells, 16 hours, Western blot
T1 construct: endogenous in cells; host or cells: MDA-MB-231
Protocol: (§1) In order to evaluate the CDK protein degradation activity of the compounds according to the present invention, the following experiment was conducted.
(§2) MDA-MB-231 cells were seeded at 5×10^5 cells per well in a 6-well plate. The next day, the compounds were treated in each well to achieve final concentrations of 100 nM, 1 μM, and 10 μM. For the control group, an equal amount of DMSO was treated in the well as the compound. After 16 hours of treatment, cells were collected, and cell lysates were prepared using Triton X-100 lysis buffer (50 mM HEPES, pH 7.5, 40 mM NaCl, 1% Triton X-100, 1 mM EDTA, 1 mM EGTA, 10 mM pyrophosphate, 10 mM β-glycerophosphate, 50 mM NaF, 1 mM NaVO4, protease inhibitor). Cell lysates were quantified and separated by size using sodium dodecyl sulfate-polyacrylamide gel electrophoresis (SDS-PAGE). Western blotting was then performed using antibodies that recognize CDK2, CDK9, and tubulin, respectively. The results obtained by Western blotting were quantitatively analyzed using the ImageJ program, and representative images according to the experimental results are shown in FIG. 1.

CDK9 = target: T2, CDK9 (Homo sapiens, UniProt P50750); test: CDK protein degradation activity (Western blotting), CDK9; type: cell-based; settings: MDA-MB-231 cells, 16 hours, Western blot
T2 construct: endogenous in cells; host or cells: MDA-MB-231
Protocol: as §1, §2

T2 sequence (P50750 whole entry): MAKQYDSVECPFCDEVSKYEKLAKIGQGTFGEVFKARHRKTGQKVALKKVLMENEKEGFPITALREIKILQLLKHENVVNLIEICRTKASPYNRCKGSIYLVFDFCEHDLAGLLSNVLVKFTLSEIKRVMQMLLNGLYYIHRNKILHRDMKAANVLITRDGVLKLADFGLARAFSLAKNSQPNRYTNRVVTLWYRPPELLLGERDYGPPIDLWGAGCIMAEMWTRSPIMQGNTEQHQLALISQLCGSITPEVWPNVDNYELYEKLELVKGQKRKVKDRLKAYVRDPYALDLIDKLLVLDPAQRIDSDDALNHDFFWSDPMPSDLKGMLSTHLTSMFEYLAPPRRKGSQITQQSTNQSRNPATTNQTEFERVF

Row | SMILES | Enzyme degradation CDK2 (% remaining) @ 0.1 μM (CDK2) | Enzyme degradation CDK2 (% remaining) @ 1 μM (CDK2) | Enzyme degradation CDK2 (% remaining) @ 10 μM (CDK2) | Enzyme degradation CDK9 (% remaining) @ 0.1 μM (CDK9) | Enzyme degradation CDK9 (% remaining) @ 1 μM (CDK9) | Enzyme degradation CDK9 (% remaining) @ 10 μM (CDK9)
1 | O=C1CC[C@H](N2C(=O)c3ccc(N4CCC5(CC4)CC(N4CCC(c6ccc(Nc7ncnc8c7ncn8[C@H]7C[C@@H](NC(=O)Cc8ccccc8)C7)cc6)CC4)C5)cc3C2=O)C(=O)N1 [Compound 298, N-((1s,3s)-3-(6-((4-(1-(7-(2-(2,6-dioxopiperidin-3-yl)-1,3-dioxoisoindolin-5-yl)-7-azaspiro[3.5]nonan-2-yl)piperidin-4-yl)phenyl)amino)-9H-purin-9-yl)cyclobutyl)-2-phenylacetamide] | 10/10/10% | 10/10/10% | 10/10/10% | 10% | 0% | 0%
2 | O=C1CC[C@H](N2C(=O)c3cccc(CCCN4CCC(CN5CCN(c6ccc(Nc7ncnc8c7ncn8C7CC(NC(=O)c8cccc(F)n8)C7)cc6)CC5)CC4)c3C2=O)C(=O)N1 (stereo partly drawn) [Compound 431, N-((1s,3s)-3-(6-((4-(4-((1-(3-(2-(2,6-dioxopiperidin-3-yl)-1,3-dioxoisoindolin-4-yl)propyl)piperidin-4-yl)methyl)piperazin-1-yl)phenyl)amino)-9H-purin-9-yl)cyclobutyl)-6-fluoropicolinamide] | 30/30/30% | 30/30/30% | 30/30/30% | 0/0/0% | 0/0/0% | 0/0/0%
3 | O=C1CC[C@H](N2C(=O)c3ccc(NCC(=O)N4CCC(CN5CCN(c6ccc(Nc7ncnc8c7ncn8C7CC(NC(=O)Cc8ccccc8)C7)cc6)CC5)CC4)cc3C2=O)C(=O)N1 (stereo partly drawn) [Compound 177, N-((1s,3s)-3-(6-((4-(4-((1-((2-(2,6-dioxopiperidin-3-yl)-1,3-dioxoisoindolin-5-yl)glycyl)piperidin-4-yl)methyl)piperazin-1-yl)phenyl)amino)-9H-purin-9-yl)cyclobutyl)-2-phenylacetamide] | 50% | 10% | 10% | 30% | 0% | 0%
4 | O=C1CCC(N2C(=O)c3cccc(OCC(=O)N4CCC5(CC4)CC(N4CCN(c6ccc(Nc7ncnc8c7ncn8[C@H]7C[C@@H](NC(=O)Cc8ccccc8)C7)cc6)CC4)C5)c3C2=O)C(=O)N1 (stereo partly drawn) [Compound 206, N-((1s,3s)-3-(6-((4-(4-(7-(2-((2-(2,6-dioxopiperidin-3-yl)-1,3-dioxoisoindolin-4-yl)oxy)acetyl)-7-azaspiro[3.5]nonan-2-yl)piperazin-1-yl)phenyl)amino)-9H-purin-9-yl)cyclobutyl)-2-phenylacetamide] | 20% | 20% | 10% | 0/0/0% | 0/0/0% | 0/0/0%
5 | CC(=O)NC1CC(n2cnc3c(NCC4CCN(CC5CCN(c6cccc7c6C(=O)N([C@H]6CCC(=O)NC6=O)C7=O)CC5)CC4)ncnc32)C1 (stereo partly drawn) [Compound 159, N-((1s,3s)-3-(6-(((1-((1-(2-(2,6-dioxopiperidin-3-yl)-1,3-dioxoisoindolin-4-yl)piperidin-4-yl)methyl)piperidin-4-yl)methyl)amino)-9H-purin-9-yl)cyclobutyl)acetamide] | 100% | 80% | 50% | 90% | 70% | 30%
6 | O=C1CC[C@H](n2nnc3ccc(N4CCN(C5CC6(CCN(c7ccc(Nc8ncnc9c8ncn9C8CC(NC(=O)Cc9ccccc9)C8)cc7)CC6)C5)CC4)cc3c2=O)C(=O)N1 (stereo partly drawn) [Compound 337, N-((1s,3s)-3-(6-((4-(2-(4-(3-(2,6-dioxopiperidin-3-yl)-4-oxo-3,4-dihydrobenzo[d][1,2,3]triazin-6-yl)piperazin-1-yl)-7-azaspiro[3.5]nonan-7-yl)phenyl)amino)-9H-purin-9-yl)cyclobutyl)-2-phenylacetamide] | 0/0/0% | 0/0/0% | 0/0/0% | 50% | 10% | 10%
7 | O=C1CC[C@H](N2C(=O)c3cc(F)c(N4CCC(CCN5CCN(c6ccc(Nc7ncnc8c7ncn8C7CC(NC(=O)Cc8ccccc8)C7)cc6)CC5)CC4)cc3C2=O)C(=O)N1 (stereo partly drawn) [Compound 323, N-((1s,3s)-3-(6-((4-(4-(2-(1-(2-(2,6-dioxopiperidin-3-yl)-6-fluoro-1,3-dioxoisoindolin-5-yl)piperidin-4-yl)ethyl)piperazin-1-yl)phenyl)amino)-9H-purin-9-yl)cyclobutyl)-2-phenylacetamide] | 60% | 50% | 40% | 0/0/0% | 0/0/0% | 0/0/0%
8 | O=C1CC[C@H](n2nnc3ccc(N4CCC(N5CCN(c6ccc(Nc7ncnc8c7ncn8[C@H]7C[C@@H](NC(=O)Cc8ccccc8)C7)cc6)CC5)CC4)cc3c2=O)C(=O)N1 [Compound 334, N-((1s,3s)-3-(6-((4-(4-(1-(3-(2,6-dioxopiperidin-3-yl)-4-oxo-3,4-dihydrobenzo[d][1,2,3]triazin-6-yl)piperidin-4-yl)piperazin-1-yl)phenyl)amino)-9H-purin-9-yl)cyclobutyl)-2-phenylacetamide] | 60% | 50% | 50% | 20% | 10% | 10%
9 | O=C1CC[C@H](N2C(=O)c3ccc(N4CCN(CC5CCN(c6ccc(Nc7ncnc8c7ncn8C7CC(NC(=O)Cc8ccccc8)C7)cc6)CC5)CC4)cc3C2=O)C(=O)N1 (stereo partly drawn) [Compound 319, N-((1s,3s)-3-(6-((4-(4-((4-(2-(2,6-dioxopiperidin-3-yl)-1,3-dioxoisoindolin-5-yl)piperazin-1-yl)methyl)piperidin-1-yl)phenyl)amino)-9H-purin-9-yl)cyclobutyl)-2-phenylacetamide] | 10% | 0% | 0% | 70% | 0% | 0%
10 | O=C1CC[C@H](N2C(=O)c3ccc(N4CC(C(=O)N5CCC(CCCN6CCN(c7ccc(Nc8ncnc9c8ncn9C8CC(NC(=O)Cc9ccccc9)C8)cc7)CC6)CC5)C4)cc3C2=O)C(=O)N1 (stereo partly drawn) [Compound 372, N-((1s,3s)-3-(6-((4-(4-(3-(1-(1-(2-(2,6-dioxopiperidin-3-yl)-1,3-dioxoisoindolin-5-yl)azetidin-3-carbonyl)piperidin-4-yl)propyl)piperazin-1-yl)phenyl)amino)-9H-purin-9-yl)cyclobutyl)-2-phenylacetamide] | 90% | 50% | 50% | 0/0/0% | 0/0/0% | 0/0/0%
11 | COc1ccc(C(=O)N2CC(CN3CCC4(CC3)CC(N3CCN(c5ccc(Nc6ncnc7c6ncn7[C@H]6C[C@@H](NC(=O)Cc7ccccc7)C6)cc5)CC3)C4)C2)cc1N1CCC(=O)NC1=O [Compound 280, N-((1s,3s)-3-(6-((4-(4-(7-((1-(3-(2,4-dioxotetrahydropyrimidin-1(2H)-yl)-4-methoxybenzoyl)azetidin-3-yl)methyl)-7-azaspiro[3.5]nonan-2-yl)piperazin-1-yl)phenyl)amino)-9H-purin-9-yl)cyclobutyl)-2-phenylacetamide] | 50% | 30% | 30% | 50% | 10% | 10%
12 | O=C1CCC(N2C(=O)c3ccc(N4CCC(OCCN5CCN(c6ccc(Nc7ncnc8c7ncn8[C@H]7C[C@@H](NC(=O)Cc8ccccc8)C7)cc6)CC5)CC4)cc3C2=O)C(=O)N1 (stereo partly drawn) [Compound 252, N-((1s,3s)-3-(6-((4-(4-(2-((1-(2-(2,6-dioxopiperidin-3-yl)-1,3-dioxoisoindolin-5-yl)piperidin-4-yl)oxy)ethyl)piperazin-1-yl)phenyl)amino)-9H-purin-9-yl)cyclobutyl)-2-phenylacetamide] | 30% | 30% | 50% | 60/60/60% | 60/60/60% | 60/60/60%
